Measurements as given in US4251563A, “Compositions containing N-nitrosamine formation or oxidation inhibitors and the use thereof” (Pfizer Inc., priority 1979, dated 1981).
In brackets after ≈: the same amount, converted by molar mass. Several values for one entry are separate records, joined by “and”; a condition that tells them apart may be missing. Equal values may be shown once. Read-outs that look alike come from different tables or passages of the source. Values belong to the compound of their own block, whether it stands above or below them.

Assays:
[1] = Equilibrium oil-water solubility and phase distribution coefficient; assay type: physicochemical; conditions: for Total Solubility: oil plus water phase; for solubility: vegetable oil/water, stirred overnight; for Total solubility (in words): oil and water
Method: The oil and water layers were separated by centrifugation at 10,000 rpm for 30 min. Any undissolved ester was removed by gravity filtration through fluted filter paper. The oil and water layers were assayed for ester using 0.01N I2 solution.

[2] = Emollient lotion accelerated stability test; conditions: accelerated stability tests of Example 3
Method: (§1) Using an accelerated stability test at 63° C. this hand creme is compared to a similarly prepared hand creme containing no erythorbyl laurate. After one month of storage at 63° C., the color, appearance and odor of both hand cremes are evaluated against freshly prepared control hand creme.
An oil phase consisting of 70 g of mineral oil, 30 g of lanolin, and 30 g of glycerol monostearate and heated to 75° C. is added to a water phase consisting of 15 g triethanolamine, 200 mg of erythorbyl caprate, and 849 ml of water, also at 75° C. After thoroughly mixing the oil and water phases at 75° C., the emulsion is cooled to 45° C. and perfumed. After cooling to room temperature the emulsion is homogenized to give the emollient lotion.
Using the accelerated stability tests of Example 3 the treated emollient lotion is compared to a similarly prepared, untreated emollient lotion.

[3] = Nitrosopyrrolidine formation in treated and untreated fried bacon, thermal energy analysis (TEA); conditions: for Level of nitrosopyrrolidine (NPy) detected in fried bacon: duplicate; for Reduction of nitrosopyrrolidine relative to untreated fried bacon: treated vs untreated fried bacon; for Level of reduction of nitrosopyrrolidine compared with tocopherol: vs positive control 500 ppm tocopherol
Method: (§2) Several base pickle solutions were prepared in tap water using the following proportions of ingredients: 2.0% sodium tripolyphosphate; 2.5% sucrose, 0%, 0.20% or 0.55% sodium erythorbate; 0.12% or 0.20% sodium nitrite; and 17.0% sodium chloride. Each ingredient was added to the water in the order given and completely dissolved before adding the next ingredient. The desired amount of ascorbyl or erythorbyl laurate was added to selected base solutions as follows. A dispersion or ascorbyl or erythorbyl laurate and Tween 20 was prepared by slurrying 2 parts of Tween 20 and 5 parts of ascorbyl or erythorbyl laurate, hydrating the slurry with a small amount of the base pickle solution and vigorously agitating the hydrated slurry for 10 min to break up the large agglomerates that formed. […] The resultant mixture was homogenized 2 times at 1000 psi in a single-stage homogenizer to give the final pickle solution. The pickle solution was chilled to about 40° F. immediately after preparation and used to prepare the bacon on the day of preparation. Duplicate pork bellies of about 10 lbs weight were stitch-pumped using each of the various concentrations of control or laurate treated cooled, agitated pickle solutions. […] The combined bacon slices from each belly were analyzed for dimethylnitrosamine and nitrosopyrrolidine using standard procedures and a TEA analyzer.

[4] = general statement, not tested in Example 7; cited from earlier work
[5] = Dimethylnitrosamine formation in treated and untreated fried bacon, thermal energy analysis (TEA); conditions: duplicate
Method: as §2

[6] = Hand creme accelerated stability test at 63° C., color, appearance and odor by test panel; conditions: one month at 63° C.
Method: (§3) A hand creme is prepared by mixing a water phase at 70° C. with an oil phase at 75° C. The oil phase consists of 2.0 g of isopropyl myristate, 2.0 g of cetyl alcohol, 15.0 g of stearic acid, 2.0 g of lanolin, and 20.0 mg of erythorbyl laurate. The water phase consists of 71.6 ml of deionized water, 3.0 g of glycerol, 3.0 g of 70% sorbitol, and 1.4 g of triethanolamine. After thoroughly mixing the oil and water phases, the emulsion is cooled to 45° C. at which time the appropriate perfumes are added and mixed thoroughly into the emulsion. After cooling the emulsion to room temperature, the resultant hand creme is placed in an opaque glass jar and sealed.
as §1

[7] = Corn flakes storage test: rancid and painty taste; conditions: six months at room temperature; 0.005% by weight, aqueous spray
Method: In a cylindrical pressure cooker are placed about 1700 pounds of degermed and debranned, No. 4-5 milled, hybrid yellow corn and 36 gallons of flavoring syrup composed of sugar, malt, salt and water. The mixture is cooked at 18 psi steam pressure for about 11/2 hours to produce a moisture content of about 33%. Uniform translucency of the kernels will indicate an adequate cook. The kernels are crushed and dried to about 21% moisture. The dried, crushed grits are then heat tempered at 180° F. for 16 hours in order to evenly distribute the water content. The cooked, dried grits are flaked using a conventional flake roller and are passed directly to the toasting oven where they are heated at 575° F. for 50 seconds to produce the finished flakes of less than 3% moisture content. As they cool, they are treated with an aqueous spray of B-complex vitamins and 0.005% by weight erythorbyl laurate relative to the final corn flakes weight. The treated, finished flakes are placed in paper boxes with waxed paper liners.
Treated and untreated flakes are stored six months at room temperature and then compared.

[8] = Bologna N-nitrosamine analysis by TEA
Method: (§4) In a large mixer there are combined 60 lb of whole carcass beef which has been ground through a 1/4" plate, 40 lb of regular pork trimmings which has been ground through a 3/8" plate, 2 lb 12 oz of salt, 8 oz of sugar, 4 oz of ground white pepper, 1 oz of coriander, 1 oz of mace, 0.85 oz of sodium erythorbate, 0.25 oz of sodium nitrite, and 1.00 oz of erythorbyl laurate. 25 lb of chopped ice is added and the mixture is cycled through a mechanical emulsifier until the desired texture is attained. The finished emulsion is transferred to a casing stuffer and stuffed into a No. 8 by 36 in. fibrous casing. The resultant product is ready for smoking, which will require approximately 8 hrs. The product is placed in a smokehouse at 130° F. with the damper open and cooked for 30 min. The damper is then closed and the temperature is raised 10° F./hr to 170° F. The heating is continued at 170° F. until an internal temperature of 156° F. is reached. The resultant bologna is cold showered with tap water for 35 to 40 min, held at room temperature for 30 min, and placed in a cooler at 36°-40° F. This procedure will produce bolognas of approximately 18 lb with a 15 in. circumference.
The two bolognas may be analyzed for N-nitrosamines using standard procedures and a TEA analyzer.

[9] = Mayonnaise storage test: color, odor and freshness; conditions: three months at room temperature; 200 ppm in the vegetable oil
Method: In an electric beater, 20 g of egg yolks, 1.2 g of dry mustard, 3.0 g of salt, and 10 ml of vinegar are combined and well beaten; 144 g of vegetable oil (such as cottonseed, corn, or sesame) which contains 200 ppm (0.02%) of ascorbyl or erythorbyl laurate is then added with constant whipping, and beating is continued until there is complete emulsification and no free oil remains. An additional 10 ml of vinegar is added and the beating is continued for a few minutes longer until the emulsion is smooth and of a semi-solid consistency. The resultant mayonnaise is packed in jars and capped.
After three months of storage at room temperature, the color, odor and freshness of the treated mayonnaise are evaluated against similarly stored, untreated mayonnaise and against freshly prepared mayonnaise.

[10] = Bologna storage test: panel comparison of color, odor and flavor; conditions: stored at 36°-40° F. for 1 month
Method: as §4
The treated bologna is sliced, wrapped and stored at 36°-40° F. for 1 month and its color, odor and flavor are compared to a similarly prepared and stored, untreated bologna.

[11] = Hand creme N-nitrosamine analysis by TEA
Method: as §3
Portions of the hand cremes described above may be analyzed for N-nitrosamines using a Thermal Energy Analyzer (TEA) and standard procedures.

[12] = organic solvent or mixture, read-out: Oil Phase Solubility
[13] = read-out: Water Phase Solubility
[14] = 120 ppm NaNO2, 200 ppm NaEr only (null control)
[15] = 200 ppm NaNO2, 200 ppm NaEr only
[16] = 120 ppm NaNO2, 550 ppm NaEr + 500 ppm EL
[17] = 120 ppm NaNO2, 550 ppm NaEr + 500 ppm AL, listed as AL

- Total Solubility [1]: 4000 ppm
- solubility [1, 12]: 1500 µg/mL (≈ 4540 µM)
- solubility [1, 13]: 2500 µg/mL (≈ 7570 µM)
- Degradation relative to untreated emollient lotion [2]: substantially less degradation
Compound: CCCCCCCCCC(=O)OC[C@@H](O)[C@H]1OC(=O)C(O)=C1O [erythorbyl caprate]

Compound: tocopherol [reference compound]
- Level of nitrosopyrrolidine (NPy) detected in fried bacon ([3]; 120 ppm NaNO2, 550 ppm NaEr + 500 ppm TOC (positive control)): none detected (Limit of detection is 0.2 ppb)
- Distribution coefficient (oil/water) (in words) [4]: essentially infinity

Compound: CCCCCCCCCCCCCCCC(=O)OC[C@H](O)[C@H]1OC(=O)C(O)=C1O [ascorbyl palmitate, reference compound]
- Total solubility (in words) ([1]; Example 7): low total solubility
- Total Solubility [1]: 175 ppm
- solubility [1, 12]: 110 µg/mL (≈ 265 µM)
- solubility [1, 13]: 65 µg/mL (≈ 157 µM)

Compound: O=C1O[C@H]([C@H](O)CO)C(O)=C1O [NaEr, sodium erythorbate, reference compound]
- Level of nitrosopyrrolidine (NPy) detected in fried bacon [3, 14]: 4.2 ppb and 3.3 ppb
- Level of nitrosopyrrolidine (NPy) detected in fried bacon [3, 15]: 3.6 ppb and 3.9 ppb
- Level of dimethylnitrosamine (DMNA) detected in fried bacon [5, 14]: 1.0 ppb and 1.2 ppb
- Level of dimethylnitrosamine (DMNA) detected in fried bacon ([5]; 120 ppm NaNO2, 550 ppm NaEr only (null control)): trace (Trace means less than 1 ppb)
- Level of dimethylnitrosamine (DMNA) detected in fried bacon [5, 15]: 2.1 ppb and 1.6 ppb

- Total Solubility [1]: 700 ppm
- solubility [1, 12]: 450 µg/mL (≈ 1260 µM)
- solubility [1, 13]: 350 µg/mL (≈ 976 µM)
Compound: CCCCCCCCCCCC(=O)OC[C@@H](O)[C@H]1OC(=O)C(O)=C1O [erythorbyl laurate]
- Level of nitrosopyrrolidine (NPy) detected in fried bacon [3, 16]: trace (Trace means less than 1 ppb)
- Level of nitrosopyrrolidine (NPy) detected in fried bacon ([3]; 200 ppm NaNO2, 550 ppm NaEr + 500 ppm EL): trace (Trace means less than 1 ppb)
- Reduction of nitrosopyrrolidine relative to untreated fried bacon [3]: approximately four
- Level of reduction of nitrosopyrrolidine compared with tocopherol [3]: about the same
- Objectionable change in color, appearance and odor relative to untreated hand creme [6]: substantially less objectionable change
- Rancid and painty taste relative to untreated flakes [7]: insignificant rancid and painty taste
- Levels of N-nitrosamines relative to untreated bologna [8]: substantially reduced levels of N-nitrosamines
- Objectionable change in color, odor and freshness of mayonnaise [9]: substantially less objectionable change
- Objectionable change in color, odor and flavor relative to untreated bologna [10]: substantially less objectionable change
- Levels of N-nitrosamines relative to untreated hand creme [11]: substantially reduced levels of N-nitrosamines
- Level of dimethylnitrosamine (DMNA) detected in fried bacon ([5]; 120 ppm NaNO2, 550 ppm NaEr + 250 ppm EL, listed as EL): 1.2 ppb and 1.7 ppb
- Level of dimethylnitrosamine (DMNA) detected in fried bacon [5, 16]: trace (Trace means less than 1 ppb)
- Level of dimethylnitrosamine (DMNA) detected in fried bacon ([5]; 120 ppm NaNO2, 995 ppm EL, no NaEr, listed as EL): 1.2 ppb and 1.0 ppb
- Level of dimethylnitrosamine (DMNA) detected in fried bacon ([5]; 200 ppm NaNO2, 550 ppm NaEr + 250 ppm EL): 2.0 ppb
- Level of dimethylnitrosamine (DMNA) detected in fried bacon ([5]; 200 ppm NaNO2, 550 ppm NaEr + 500 ppm EL, listed as EL): 1.3 ppb and 1.9 ppb
- Level of dimethylnitrosamine (DMNA) detected in fried bacon ([5]; 200 ppm NaNO2, 995 ppm EL, no NaEr, listed as EL): 2.2 ppb and 1.7 ppb

Compound: COc1ccc(O)c(C(C)(C)C)c1 [BHA]
- Distribution coefficient (oil/water) (in words) [4]: essentially infinity
- Water solubility (in words) [4]: water-insoluble

- Total Solubility [1]: 390 ppm
- solubility [1, 12]: 250 µg/mL (≈ 697 µM)
- solubility [1, 13]: 140 µg/mL (≈ 391 µM)
Compound: CCCCCCCCCCCC(=O)OC[C@H](O)[C@H]1OC(=O)C(O)=C1O [ascorbyl laurate]
- Level of nitrosopyrrolidine (NPy) detected in fried bacon [3, 17]: 1.4 ppb and 2.4 ppb
- Reduction of nitrosopyrrolidine relative to untreated fried bacon [3]: approximately four
- Level of reduction of nitrosopyrrolidine compared with tocopherol [3]: about the same
- Objectionable change in color, odor and freshness of mayonnaise [9]: substantially less objectionable change
- Level of dimethylnitrosamine (DMNA) detected in fried bacon [5, 17]: 2.7 ppb and 1.7 ppb
- Level of dimethylnitrosamine (DMNA) detected in fried bacon ([5]; 200 ppm NaNO2, 550 ppm NaEr + 500 ppm AL, listed as AL): 1.6 ppb and 2.6 ppb

Compound: CC(C)(C)c1cc(O)ccc1O [TBHQ]
- Distribution coefficient (oil/water) (in words) [4]: essentially infinity
- Water solubility (in words) [4]: water-insoluble

- Total solubility (in words) ([1]; Example 7): high total solubility
- Total Solubility [1]: 5400 ppm
- Distribution coefficient (in words) ([1]; oil/water, Example 7): very low distribution coefficient
- solubility [1, 12]: 100 µg/mL (≈ 303 µM)
- solubility [1, 13]: 5300 µg/mL (≈ 16000 µM)
Compound: CCCCCCCCCC(=O)OC[C@H](O)[C@H]1OC(=O)C(O)=C1O [ascorbyl caprate, reference compound]

Compound: Cc1cc(C(C)(C)C)c(O)c(C(C)(C)C)c1 [BHT]
- Distribution coefficient (oil/water) (in words) [4]: essentially infinity
- Water solubility (in words) [4]: water-insoluble
